Results as given in ChEMBL document CHEMBL4002580, “Chloromethylhalicyclamine B, a Marine-Derived Protein Kinase CK1δ/ε Inhibitor” (J Nat Prod, 2016).
The source made the active and inactive calls. The rule behind the calls is not given here.

Tests used:
[1] = target: CDK2/Cyclin A2 (Homo sapiens) (UniProt P24941+P20248); test: Inhibition of CDK2/cyclin A (unknown origin) at 0.003 to 10 uM after 30 mins in presence of [gamma-33P]ATP by scintillation counting method; type: protein-complex assay
[2] = target: Dual specificity protein kinase CLK3 (Mus musculus) (UniProt O35492); test: Inhibition of mouse recombinant GST-fused CLK3 expressed in Escherichia coli at 0.003 to 10 uM using RS peptide as substrate after 30 mins in presence of [gamma-33P]ATP by scintillation counting method
[3] = target: Dual specificity protein kinase CLK4 (Mus musculus) (UniProt O35493); test: Inhibition of mouse recombinant GST-fused CLK4 expressed in Escherichia coli at 0.003 to 10 uM using RS peptide as substrate after 30 mins in presence of [gamma-33P]ATP by scintillation counting method
[4] = target: T1, Dual specificity tyrosine-phosphorylation-regulated kinase 3 (Homo sapiens) (UniProt O43781); test: Inhibition of human recombinant GST-fused DYRK3 expressed in Escherichia coli at 0.003 to 10 uM using RS peptide as substrate after 30 mins in presence of [gamma-33P]ATP by scintillation counting method
T1 sequence (whole entry): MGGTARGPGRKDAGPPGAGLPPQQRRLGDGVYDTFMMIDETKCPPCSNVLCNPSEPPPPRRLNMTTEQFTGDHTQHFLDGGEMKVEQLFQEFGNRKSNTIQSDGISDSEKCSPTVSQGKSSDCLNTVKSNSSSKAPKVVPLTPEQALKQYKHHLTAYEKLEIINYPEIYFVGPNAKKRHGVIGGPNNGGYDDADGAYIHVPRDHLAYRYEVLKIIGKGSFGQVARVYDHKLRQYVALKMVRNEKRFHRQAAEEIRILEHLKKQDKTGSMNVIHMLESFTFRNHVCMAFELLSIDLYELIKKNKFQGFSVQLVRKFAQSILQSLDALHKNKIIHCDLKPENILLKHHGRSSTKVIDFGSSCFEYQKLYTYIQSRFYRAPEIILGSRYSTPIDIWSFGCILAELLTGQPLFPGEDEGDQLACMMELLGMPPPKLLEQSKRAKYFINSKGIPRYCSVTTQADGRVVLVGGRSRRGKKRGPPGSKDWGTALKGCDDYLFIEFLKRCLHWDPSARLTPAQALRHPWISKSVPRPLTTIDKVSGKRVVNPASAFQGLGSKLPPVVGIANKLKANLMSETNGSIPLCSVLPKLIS

[5] = Inhibition of porcine brain CK1delta/epsilon using CKS peptide as substrate after 30 mins in presence of [gamma-33P]ATP by scintillation counting method; parameters: species or system Sus scrofa
[6] = target: Dual specificity tyrosine-phosphorylation-regulated kinase 1B (Homo sapiens) (UniProt Q9Y463); test: Inhibition of human recombinant GST-fused DYRK1B expressed in Escherichia coli at 0.003 to 10 uM using RS peptide as substrate after 30 mins in presence of [gamma-33P]ATP by scintillation counting method
[7] = target: T2, Dual specificity tyrosine-phosphorylation-regulated kinase 2 (Homo sapiens) (UniProt Q92630); test: Inhibition of human recombinant GST-fused DYRK2 expressed in Escherichia coli at 0.003 to 10 uM using RS peptide as substrate after 30 mins in presence of [gamma-33P]ATP by scintillation counting method
T2 sequence (whole entry): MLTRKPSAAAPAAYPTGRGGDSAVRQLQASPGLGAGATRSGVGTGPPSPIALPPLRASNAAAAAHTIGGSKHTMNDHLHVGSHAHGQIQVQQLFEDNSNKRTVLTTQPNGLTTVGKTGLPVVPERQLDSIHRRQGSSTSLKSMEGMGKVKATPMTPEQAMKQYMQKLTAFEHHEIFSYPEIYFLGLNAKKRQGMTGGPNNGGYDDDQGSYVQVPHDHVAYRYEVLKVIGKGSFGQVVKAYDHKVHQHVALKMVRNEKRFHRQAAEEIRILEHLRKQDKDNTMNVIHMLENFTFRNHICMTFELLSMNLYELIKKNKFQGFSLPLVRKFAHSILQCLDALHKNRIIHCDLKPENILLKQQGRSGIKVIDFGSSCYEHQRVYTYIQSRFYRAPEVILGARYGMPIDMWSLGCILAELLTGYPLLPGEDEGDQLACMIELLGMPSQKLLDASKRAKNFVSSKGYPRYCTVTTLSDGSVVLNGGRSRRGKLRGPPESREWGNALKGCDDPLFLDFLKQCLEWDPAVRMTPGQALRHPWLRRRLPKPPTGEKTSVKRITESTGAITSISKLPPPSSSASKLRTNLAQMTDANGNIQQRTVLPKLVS

[8] = system: Leishmania major; test: Inhibition of Leishmania major recombinant CK1 expressed in Escherichia coli at 0.003 to 10 uM using CKS peptide as substrate after 30 mins in presence of [gamma-33P]ATP by scintillation counting method
[9] = target: Dual specificity protein kinase CLK2 (Mus musculus) (UniProt O35491); test: Inhibition of mouse recombinant GST-fused CLK2 expressed in Escherichia coli at 0.003 to 10 uM using RS peptide as substrate after 30 mins in presence of [gamma-33P]ATP by scintillation counting method
[10] = organism: Homo sapiens; test: Inhibition of GSK3 (unknown origin) at 0.003 to 10 uM using GS-1 as substrate after 30 mins in presence of [gamma-33P]ATP by scintillation counting method
[11] = target: Cyclin-dependent kinase 5/CDK5 activator 1 (Homo sapiens) (UniProt Q00535+Q15078); test: Inhibition of recombinant human CDK5/p25 expressed in Escherichia coli at 0.003 to 10 uM using histone H1 as substrate after 30 mins in presence of [gamma-33P]ATP by scintillation counting method
[12] = organism: Sus scrofa; test: Inhibition of porcine brain CK1delta/epsilon at 0.003 to 10 uM using CKS peptide as substrate after 30 mins in presence of [gamma-33P]ATP by scintillation counting method
[13] = target: Dual specificity tyrosine-phosphorylation-regulated kinase 1A (Homo sapiens) (UniProt Q13627); test: Inhibition of GST-fused DYRK1A (unknown origin) expressed in Escherichia coli at 0.003 to 10 uM using RS peptide as substrate after 30 mins in presence of [gamma-33P]ATP by scintillation counting method
[14] = target: Dual specificity protein kinase CLK1 (Mus musculus) (UniProt P22518); test: Inhibition of mouse recombinant GST-fused CLK1 expressed in Escherichia coli at 0.003 to 10 uM using RS peptide as substrate after 30 mins in presence of [gamma-33P]ATP by scintillation counting method
[15] = target: CDK9/cyclin T1 (Homo sapiens) (UniProt O60563+P50750); test: Inhibition of recombinant human CDK9/cyclin T expressed in insect cells at 0.003 to 10 uM using CDK7/9-Tide as substrate after 30 mins in presence of [gamma-33P]ATP by scintillation counting method

Dual specificity protein kinase CLK2 (Mus musculus), sequence (O35491 whole entry, looked up, the tested form may be a part): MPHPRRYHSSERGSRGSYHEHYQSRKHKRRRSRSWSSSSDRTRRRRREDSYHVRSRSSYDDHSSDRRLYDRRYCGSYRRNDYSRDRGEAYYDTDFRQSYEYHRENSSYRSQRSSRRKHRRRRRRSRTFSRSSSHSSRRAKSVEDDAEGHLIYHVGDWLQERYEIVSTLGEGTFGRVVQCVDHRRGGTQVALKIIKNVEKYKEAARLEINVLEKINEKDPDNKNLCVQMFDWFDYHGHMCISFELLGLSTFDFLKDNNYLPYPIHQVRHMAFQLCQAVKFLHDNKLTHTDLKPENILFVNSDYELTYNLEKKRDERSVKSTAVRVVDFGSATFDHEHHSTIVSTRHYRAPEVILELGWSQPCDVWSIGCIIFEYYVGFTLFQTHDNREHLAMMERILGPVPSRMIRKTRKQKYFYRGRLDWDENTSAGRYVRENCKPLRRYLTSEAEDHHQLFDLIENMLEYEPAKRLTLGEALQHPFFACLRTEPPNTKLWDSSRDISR
Dual specificity protein kinase CLK1 (Mus musculus), sequence (P22518 whole entry, looked up, the tested form may be a part): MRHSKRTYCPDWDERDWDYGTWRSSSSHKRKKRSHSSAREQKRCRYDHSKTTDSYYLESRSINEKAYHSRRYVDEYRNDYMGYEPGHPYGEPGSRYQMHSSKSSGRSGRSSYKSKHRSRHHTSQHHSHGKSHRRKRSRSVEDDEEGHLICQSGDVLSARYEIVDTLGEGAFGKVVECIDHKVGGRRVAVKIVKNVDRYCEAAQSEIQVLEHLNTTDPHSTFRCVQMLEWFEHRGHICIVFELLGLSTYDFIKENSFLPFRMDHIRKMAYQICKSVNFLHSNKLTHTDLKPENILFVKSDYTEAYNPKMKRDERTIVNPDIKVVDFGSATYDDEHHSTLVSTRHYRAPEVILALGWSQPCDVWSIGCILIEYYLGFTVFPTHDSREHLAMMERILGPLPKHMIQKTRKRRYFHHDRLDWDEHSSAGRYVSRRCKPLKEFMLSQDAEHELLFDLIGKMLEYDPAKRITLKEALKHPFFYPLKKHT
Dual specificity protein kinase CLK3 (Mus musculus), sequence (O35492 whole entry, the tested form may be a part): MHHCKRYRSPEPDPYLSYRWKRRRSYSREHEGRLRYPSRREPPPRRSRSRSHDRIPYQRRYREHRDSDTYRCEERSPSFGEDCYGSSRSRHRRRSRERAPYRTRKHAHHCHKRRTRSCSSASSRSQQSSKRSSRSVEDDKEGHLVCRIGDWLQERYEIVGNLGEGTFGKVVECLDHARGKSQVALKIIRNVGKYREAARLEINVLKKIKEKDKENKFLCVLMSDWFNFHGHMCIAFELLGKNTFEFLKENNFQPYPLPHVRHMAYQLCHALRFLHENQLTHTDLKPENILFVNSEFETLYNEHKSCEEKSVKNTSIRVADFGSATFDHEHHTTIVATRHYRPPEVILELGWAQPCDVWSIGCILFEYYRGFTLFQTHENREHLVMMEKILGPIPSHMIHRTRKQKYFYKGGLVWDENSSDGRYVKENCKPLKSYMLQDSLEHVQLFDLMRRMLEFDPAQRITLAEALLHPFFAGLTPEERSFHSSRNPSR
Dual specificity tyrosine-phosphorylation-regulated kinase 1B (Homo sapiens), sequence (Q9Y463 whole entry, looked up, the tested form may be a part): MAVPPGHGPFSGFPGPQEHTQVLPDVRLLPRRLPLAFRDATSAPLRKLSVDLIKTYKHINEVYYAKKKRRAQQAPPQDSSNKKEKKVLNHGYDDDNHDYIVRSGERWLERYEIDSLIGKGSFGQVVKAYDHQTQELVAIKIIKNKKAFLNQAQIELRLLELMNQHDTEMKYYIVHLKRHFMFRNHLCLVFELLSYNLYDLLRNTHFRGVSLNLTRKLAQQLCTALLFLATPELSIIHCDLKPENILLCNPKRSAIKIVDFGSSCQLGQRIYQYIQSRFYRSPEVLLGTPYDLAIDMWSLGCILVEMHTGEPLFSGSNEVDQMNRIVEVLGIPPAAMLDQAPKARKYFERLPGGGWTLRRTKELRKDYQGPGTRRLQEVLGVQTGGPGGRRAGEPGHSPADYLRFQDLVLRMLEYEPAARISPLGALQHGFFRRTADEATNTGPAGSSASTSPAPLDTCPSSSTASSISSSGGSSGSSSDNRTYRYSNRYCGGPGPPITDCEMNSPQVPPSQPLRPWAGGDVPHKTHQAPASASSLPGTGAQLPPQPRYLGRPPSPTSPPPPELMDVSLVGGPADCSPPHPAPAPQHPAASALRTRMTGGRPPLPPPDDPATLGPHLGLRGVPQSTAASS
Cyclin-dependent kinase 5/CDK5 activator 1 (Homo sapiens), sequence (Q00535 whole entry): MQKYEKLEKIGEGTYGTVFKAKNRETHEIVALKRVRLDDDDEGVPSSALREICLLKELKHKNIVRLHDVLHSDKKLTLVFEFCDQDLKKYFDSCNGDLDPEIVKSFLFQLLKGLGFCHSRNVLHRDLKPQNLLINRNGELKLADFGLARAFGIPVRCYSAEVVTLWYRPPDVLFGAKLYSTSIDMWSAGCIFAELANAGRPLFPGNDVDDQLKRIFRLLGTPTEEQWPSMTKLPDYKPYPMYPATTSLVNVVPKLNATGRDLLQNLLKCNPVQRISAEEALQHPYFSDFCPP
Cyclin-dependent kinase 5/CDK5 activator 1 (Homo sapiens), sequence (Q15078 99-307 partner limits assumed): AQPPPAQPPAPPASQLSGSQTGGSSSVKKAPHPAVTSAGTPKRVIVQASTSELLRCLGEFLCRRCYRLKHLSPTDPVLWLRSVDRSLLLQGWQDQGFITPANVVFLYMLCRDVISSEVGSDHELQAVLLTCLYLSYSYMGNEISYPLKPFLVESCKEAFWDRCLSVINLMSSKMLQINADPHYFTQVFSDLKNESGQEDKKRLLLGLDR
Dual specificity protein kinase CLK4 (Mus musculus), sequence (O35493 whole entry, looked up, the tested form may be a part): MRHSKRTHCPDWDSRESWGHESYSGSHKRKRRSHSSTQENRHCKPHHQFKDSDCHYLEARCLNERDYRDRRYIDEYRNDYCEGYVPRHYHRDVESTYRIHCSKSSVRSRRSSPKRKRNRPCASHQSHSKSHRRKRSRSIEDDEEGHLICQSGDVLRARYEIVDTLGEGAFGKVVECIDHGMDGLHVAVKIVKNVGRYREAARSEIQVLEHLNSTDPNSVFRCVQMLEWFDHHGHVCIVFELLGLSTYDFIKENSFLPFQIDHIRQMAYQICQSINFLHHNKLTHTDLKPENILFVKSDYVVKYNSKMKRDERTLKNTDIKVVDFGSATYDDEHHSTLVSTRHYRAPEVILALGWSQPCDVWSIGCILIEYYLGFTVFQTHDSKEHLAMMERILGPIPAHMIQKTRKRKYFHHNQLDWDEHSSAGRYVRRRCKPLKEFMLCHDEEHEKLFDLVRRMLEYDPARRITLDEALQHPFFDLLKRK

Compound	inhibition [1]	inhibition [2]	inhibition [3]	inhibition [4]	IC50 [5] [µM]	inhibition [6]	inhibition [7]	inhibition [8]	inhibition [9]	inhibition [10]	inhibition [11]	inhibition [12]	inhibition [13]	inhibition [14]	inhibition [15]
ClC[N@@+]12CCCC/C=C\CC[C@@H]3C=C4CN(CCCC/C=C\CC[C@H](C1)[C@H]4CC2)C3	inactive	inactive	inactive	inactive	6	inactive	inactive	inactive	inactive	–	–	–	–	–	–
C1=C2CN3CCCC/C=C\CC[C@@H]4CN(CCCC/C=C\CC[C@H]1C3)CC[C@@H]24	–	–	–	–	–	–	–	–	–	inactive	inactive	inactive	inactive	inactive	inactive
